pIC50: −log10 of the molar value. Where two headings read alike, the source gives them in different places.
What was measured:
[1] = tested on: rat model of edema induced by carragenine; test: Carrageenan-induced paw edema; type: in vivo; conditions: 1 h, 60 min, read-out: Edema inhibition 60 min, MPE
Experimental: (§1) Male Swiss albino mice (23-25 g) and Sprague Dawley or Wistar rats (150-200 g) were used. The animals were fed a standard laboratory diet and tap water ad libitum and kept at 23±1° C. with a 12 h light/dark cycle, light on at 7 a.m.
Rats paw volumes were measured using a plethysmometer. Rats received the investigated compounds 4 hours after a 0.1-ml injection of 1.0% carrageenan in the right hind paw. Five hours after the injection of carrageenan (i.e. 1 hour after the administration of the investigated compound), the paw volume of the right hind paw was measured and compared with saline/carrageenan-treated controls. Results are reported as maximum percent effect (MPE), see below for detailed explanation.

[2] = tested on: rat model of hyperalgesia induced by Zymosan; test: Zymosan-induced hyperalgesia (Randal-Selitto); type: in vivo; conditions: oral
Experimental: as §1
(§2) The interplantar injection of Zymosan-induced mechanical hyperalgesia may be used as a model of inflammatory pain (Meller, Neuropharmacology, 1994, 33, 1471-1478). In this model, typically a male Sprague-Dawely or Wistar rat (200-250 g) receives an interplantar injection of 4 mg/100 μl zymosan into one hind paw. A marked inflammation occurs in this hind paw. Drugs are administered orally for evaluation of efficacy, 30 min. before the inflammatory insult. The hyperalgesia induced by zymosan administration was evaluated using the Randal-Selitto method (Arch. Int. Pharmacodyn., 1957, 111, 409). The quantitation of the analgesic effect is achieved by an analgesimeter, which consist in applying to the inflamed paw an increasing weight (from 130-140 g up to 500 g). The difference in the mechanical pain threshold between the basal value (generally 230-250 g) and the one tolerated by the animals treated with the drug, determined 4 hours after the inflammatory challenge, is defined as mechanical hyperalgesia.
Mechanical hyperalgesia is expressed for the compounds of the invention as maximum percent effect (MPE) which represents the difference (%) in pain threshold between the animals treated with the drug and the controls that received only the vehicle.
Results are reported as MPE (reduction of the nociceptive effect, due to paw loading with increasing weight, in comparison to controls). 100% MPE means that the animal treated with the compound and Zymosan can tolerate the same stimulus (weight) as the control animals which have not received Zymosan treatment. MPE higher than 100% mean that the animal treated with the compound and Zymosan can tolerate stimuli (weight) higher than the control animals, which has not received Zymosan treatment (hypoalgesia).

[3] = tested on: rat model of hyperalgesia induced by carragenine; test: Paw pressure test, hyperalgesia induced by carragenine; type: in vivo
Experimental: as §1
The nociceptive threshold in the rat was determined with an analgesimeter, according to the method described by Leighton et al, G. E.; Br. J. Pharmacol. 1988, 93, 553-560. Threshold pressure was measured before and 30, 60 and 120 min after treatment. An arbitrary cut-off value of 250 g was adopted. In order to induce an inflammatory process in the rat paw carrageenan (0.1 ml, 1%) was administered i.p. 4 h before test.

[4] = tested on: mouse abdominal constriction (writhing); test: Mouse abdominal constriction test (acetic acid 0.6%), writhing test; type: in vivo; conditions: mice, 30 min before test, control 38.1 ± 2.6
Experimental: as §1
Mice were injected i.p. with a 0.6% solution of acetic acid (10 ml/kg), according to Koster et al. Fed. Proc., 1959, 18, 412. The number of stretching movements was counted for 10 min, starting 5 min after acetic acid injection.

[5] = tested on: rat model of edema induced by Zymosan; test: Zymosan-induced paw edema; type: in vivo; conditions: oral
Experimental: as §1, §2
In vivo anti-inflammatory effect exerted by the compounds of the invention can be assessed in the same Zymosan induced inflammation test described above, by measuring the volume of the oedema induced by the inflammatory agent. The oedema was evaluated as the increase in the volume of the Zymosan injected paw within a time of 0-2 hrs. The measurements of the variation of the oedema volume of the paw were recorded using hydroplethysmometer. Results are expressed as MPE, maximum percent effect, that in this case represents the reduction (%) in the oedema of treated animals in comparison to controls (animals treated with Zymosan, which received only the vehicle).

COX-2 = target: T1, COX-2 (Mus musculus, UniProt Q05769); test: Assessment of COX-2 activity in LPS-stimulated J774 cells (PGE2 radioimmunoassay); type: cell-based, murine; conditions: for COX-1/COX-2 Selectivity Index (IC50 ratio): Table 2, Formula Ia
T1 construct: lipopolysaccharide (LPS, 10 μg/mL) to induce COX-2; endogenous in cells; host or cells: J774 murine monocyte/macrophage cell line, LPS-stimulated
T1 sequence (Q05769 18-604): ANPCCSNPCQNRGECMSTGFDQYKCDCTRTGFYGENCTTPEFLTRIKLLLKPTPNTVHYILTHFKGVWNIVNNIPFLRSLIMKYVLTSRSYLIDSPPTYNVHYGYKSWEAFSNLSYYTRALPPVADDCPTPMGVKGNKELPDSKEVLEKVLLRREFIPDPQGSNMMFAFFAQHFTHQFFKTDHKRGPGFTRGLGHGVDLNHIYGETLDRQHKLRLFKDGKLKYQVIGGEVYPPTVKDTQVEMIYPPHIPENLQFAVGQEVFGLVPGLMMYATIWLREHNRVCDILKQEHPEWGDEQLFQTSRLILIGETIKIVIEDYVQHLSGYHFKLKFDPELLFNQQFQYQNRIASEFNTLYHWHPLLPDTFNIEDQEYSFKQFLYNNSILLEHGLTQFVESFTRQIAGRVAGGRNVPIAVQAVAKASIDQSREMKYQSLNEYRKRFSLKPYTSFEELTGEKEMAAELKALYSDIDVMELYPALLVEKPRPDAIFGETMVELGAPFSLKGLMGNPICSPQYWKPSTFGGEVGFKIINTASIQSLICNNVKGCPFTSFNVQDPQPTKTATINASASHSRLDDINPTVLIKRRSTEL
Experimental: Cells were stimulated for 24 h with E. coli lipopolysaccharide (LPS, 10 μg/mL) to induce COX-2, in the absence or presence of test compounds, at the concentrations previously reported. The supernatants were collected for the measurement of PGE2 by radioimmunoassay.
Analysis. Throughout the time the experiments lasted, triplicate wells were used for the various conditions of treatment. Results are expressed as the mean, for 3 experiments, of the % inhibition of PGE2 production by test compounds with respect to control samples. Data fit was obtained using the sigmoidal dose-response equation (variable slope). The IC50 were calculated by GraphPad Instat program (GraphPad software).

glaucomatous rabbits = conditions: not COX-2 dependent effect; cited from earlier work
low-density lipoprotein = conditions: cited from earlier work
[6] = study whether Celecoxib could treat AD; cited from earlier work
[7] = VIGOR trial; cited from earlier work
[8] = 0.5 h, 30 min, read-out: Analgesia 30 min MPE
[9] = 1 h, 60 min, read-out: Analgesia 60 min MPE

Structure (SMILES)	melting point	COX-1/COX-2 Selectivity Index (IC50 ratio) (COX-2)	inhibition in vivo at 20 mg/kg [1]	inhibition in vivo at 20 mg/kg [3, 8]	inhibition in vivo at 20 mg/kg [3, 9]	Number of writhes ([4]; 20 mg/Kg s.c.)	other results
Cc1c(CC(=O)OC(C)C)cc(-c2ccc(S(C)(=O)=O)cc2)n1-c1ccccc1 [Example 1, Isopropyl[2-methyl-5-(4-methylsulphonyl)phenyl-1-phenyl-1H-pyrrol-3-yl]acetate]	160 °C						inhibition in vivo at 5 mg/kg ([1]; 5 mg/Kg): 100%; Analgesia 0-2 hrs MPE ([2]; 3 mg/Kg): 75%; Analgesia 0-6 hrs MPE ([2]; 3 mg/Kg): 70%; inhibition in vivo at 5 mg/kg [3, 8]: 80%; inhibition in vivo at 5 mg/kg [3, 9]: 60%; Number of writhes ([4]; 5 mg/Kg s.c.): 28.5 ± 3.3; Edema 0-2 hrs MPE ([5]; 3 mg/Kg): 20%; Edema 0-6 hrs MPE ([5]; 3 mg/Kg): 15%
Cc1onc(-c2ccccc2)c1-c1ccc(S(N)(=O)=O)cc1 [Valdecoxib]							effect on intraocular pressure (glaucomatous rabbits): reduce intraocular pressure
Cc1ccc(-c2cc(C(F)(F)F)nn2-c2ccc(S(N)(=O)=O)cc2)cc1 [Celecoxib]			95%	73%	81%		susceptibility of low-density lipoprotein to oxidative modifications (low-density lipoprotein): had no effect; Analgesia 0-2 hrs MPE ([2]; 3 mg/Kg): 30%; Analgesia 0-6 hrs MPE ([2]; 3 mg/Kg): 35%; incidence of heart attack in the treated group in comparison to placebo [6]: four times higher; Edema 0-6 hrs MPE ([5]; 3 mg/Kg): 24.8%
CCOC(=O)Cc1cc(-c2ccc(S(C)(=O)=O)cc2)n(-c2ccc(F)c(F)c2)c1C [Compound 5b, Ethyl 2-[1-(3,4-difluoro)phenyl-2-methyl-5-(4-methylsulphonyl)phenyl-1H-pyrrol-3-yl]acetate, reference compound]			30%	30%	36%		Analgesia 0-2 hrs MPE ([2]; 4 mg/Kg): 9%; Analgesia 0-6 hrs MPE ([2]; 4 mg/Kg): 12%; selectivity (COX-2): > 5000; pIC50 (COX-2; read-out: in vitro COX-2 inhibitory potency IC50): 7.70; Edema 0-2 hrs MPE ([5]; 4 mg/Kg): 8%; Edema 0-6 hrs MPE ([5]; 4 mg/Kg): 6%

Further lines, with some results ahead:

melting point	COX-1/COX-2 Selectivity Index (IC50 ratio) (COX-2)	Structure (SMILES)	inhibition in vivo at 20 mg/kg [1]	inhibition in vivo at 20 mg/kg [3, 8]	inhibition in vivo at 20 mg/kg [3, 9]	Number of writhes ([4]; 20 mg/Kg s.c.)	other results
138 °C	>4500	COc1ccc(-n2c(-c3ccc(S(C)(=O)=O)cc3)cc(CC(=O)OC(C)C)c2C)cc1 [Example 3, Isopropyl[1-(4-methoxy)phenyl-2-methyl-5-(4-methylsulphonyl)phenyl-1H-pyrrol-3-yl]acetate]	77%	67%	90%	18.5 ± 3.5	
112 °C	>3300	CCCCOC(=O)Cc1cc(-c2ccc(S(C)(=O)=O)cc2)n(-c2ccc(F)c(F)c2)c1C [Example 5, n-Butyl[1-(3,4-difluoro)phenyl-2-methyl-5-(4-methylsulphonyl)phenyl-1H-pyrrol-3-yl]acetate]	74%	76%	100%	13.7 ± 4.0	
143 °C	>4700	Cc1c(CC(=O)OC(C)C)cc(-c2ccc(S(C)(=O)=O)cc2)n1-c1ccc(F)c(F)c1 [Example 2, Isopropyl[1-(3,4-difluoro)phenyl-2-methyl-5-(4-methylsulphonyl)phenyl-1H-pyrrol-3-yl]acetate]	91%	100%	70%	21.5 ± 3.9	
100 °C	>2300	Cc1c(CC(=O)OC(C)C)cc(-c2ccc(S(C)(=O)=O)cc2)n1-c1cccc(F)c1 [Example 4, Isopropyl[1-(3-fluoro)phenyl-2-methyl-5-(4-methylsulphonyl)phenyl-1H-pyrrol-3-yl]acetate]	87%	84%	80%	17.7 ± 2.9	
	>800	CS(=O)(=O)c1ccc(C2=C(c3ccccc3)C(=O)OC2)cc1 [Rofecoxib]					susceptibility of low-density lipoprotein to oxidative modifications (low-density lipoprotein): increases susceptibility; effect on intraocular pressure (glaucomatous rabbits): had no effect; incidence of acute myocardial infarction, Rofecoxib arm compared with the Naproxen arm [7]: five-fold increase

From patent US7906551B2 (Rottapharm S.p.A., priority 2006, dated 2011)
